Experimental data reported in US20080274544A1, “Promotor for Introducing Extracellular Substance into Mammalian Ovum and Introduction Method” (priority 2005, published 2008).
“Also recorded” adds a separate entry of the source.

What was measured:
[1] = tested on: zona pellucida-free mouse unfertilized oocytes; assay: In vitro fertilization of zona pellucida-free oocytes, sperm-oocyte fusion; assay type: cell-based; conditions: for number of sperm which fused with the oocytes: zona pellucida-free oocytes, 1 hr after insemination, oocytes cultured 1 hr in 20 μM vinblastine or 10 μM paclitaxel, compared with untreated control (FIG. 1)
Description: (§1) • (1) Mice of eight week-old or older were purchased and made adapted to grow environment for 1 week before use. PMS (Serotoropin exclusive to animal, manufactured by ASUKA Pharmaceutical) was injected in an amount of 0.1 ml into the abdominal cavity of the mouse at 8:00 pm. • (2) 48 hr later, HCG (Gonadotropin exclusive to animal, manufactured by ASUKA Pharmaceutical) was injected in an amount of 0.1 ml into the abdominal cavity. • (3) Mice were euthanized the next day (14 to 16 hr after HCG injection), and the ampulla of oviduct was removed. An oocyte surrounded by cumulus cells was collected and cultured in a (100 μL) drop of TYH medium. • (4) Cumulus cells were removed by hyaluronidase (300 μg/mL) treatment, then the oocyte was cultured in TYH medium for 3 hr. In the case of conducting removal of zona pellucida, oocyte zona pellucida was removed by an acid Tyrode's solution treatment followed by culturing the oocyte in TYH medium for 3 hr. 2. Treatment with a Tubulin-Polymerization Inhibitor
(§2) The collected unfertilized oocyte of the mice was treated by using vinblastine (VB) as a tubulin-polymerization inhibitor. As controls, an oocyte treated with paclitaxel (Pac; Brand Name: taxol), tubulin-polymerization promoter, and an untreated oocyte (control) were used. Vinblastine (VB) treatment was conducted by culturing the oocyte in 20 μM of vinblastine solution (TYH medium) for 1 hr, while paclitaxel (Pac) treatment was conducted by culturing the oocyte in 10 μM of paclitaxelel (Pac) solution (TYH medium) similarly for 1 hr.
The mouse unfertilized oocyte was treated with vinblastine (VB), a tubulin-polymerization inhibitor, and in vitro fertilization was conducted with mouse sperm. […]
(In the case where zona pellucida-free oocytes were use): To quantify sperm-oocyte fusion efficiency, zona pellucida-free mouse unfertilized oocytes were treated with vinblastine (VB), a tubulin-polymerization inhibitor, or paclitaxel (Pac), tubulin-polymerization promoter, or left untreated (control). […]

[2] = tested on: mouse unfertilized oocytes with zona pellucida; assay: In vitro fertilization of oocytes with zona pellucida, fertilization efficiency; assay type: cell-based
Description: as §1, §2
The mouse unfertilized oocyte was treated with vinblastine (VB), a tubulin-polymerization inhibitor, and in vitro fertilization was conducted with mouse sperm. As controls, an unfertilized oocyte treated with paclitaxel (Pac; Brand Name: taxol), tubulin-polymerization promoter, and an untreated oocyte (control) were used. […]

Structure (SMILES) | sperm-oocyte membrane fusion ([1]; mouse unfertilized oocyte treated with tubulin-polymerization promoter) | number of sperm which fused with the oocytes [1] | increase of fertilization efficiency compared to untreated oocytes ([2]; 2-cell-stage oocytes, oocytes cultured 1 hr in 20 μM vinblastine (FIG. 2)) [%] | fusion efficiency of oocytes treated with anti-mouse CD9 antibody having a fusion-inhibitory effect ([2]; vinblastine treatment together with anti-mouse CD9 antibody) | fusion of immature oocytes with sperm ([2]; vinblastine-treated immature oocytes)
CC(=O)O[C@H]1C(=O)[C@@]2(C)[C@H]([C@H](OC(=O)c3ccccc3)[C@]3(O)C[C@H](OC(=O)[C@H](O)[C@@H](NC(=O)c4ccccc4)c4ccccc4)C(C)=C1C3(C)C)[C@]1(OC(C)=O)CO[C@@H]1C[C@@H]2O [paclitaxel] | inhibited | not fused | – | – | –
CC[C@]1(O)C[C@@H]2CN(CCc3c([nH]c4ccccc34)[C@@](C(=O)OC)(c3cc4c(cc3OC)N(C)[C@H]3[C@@](O)(C(=O)OC)[C@H](OC(C)=O)[C@]5(CC)C=CCN6CC[C@]43[C@@H]65)C2)C1 [vinblastine] | – | largest number | 20 | increased | could be fused with sperm; also recorded: could fuse with sperm
